{"source": "ChEMBL document CHEMBL1201862", "about": "“PubChem BioAssay data set” (2004)", "key": {"[1]": {"molecular_target": "T1, Hexokinase-1 (Homo sapiens, UniProt P19367)", "T1 sequence (P19367 whole entry)": "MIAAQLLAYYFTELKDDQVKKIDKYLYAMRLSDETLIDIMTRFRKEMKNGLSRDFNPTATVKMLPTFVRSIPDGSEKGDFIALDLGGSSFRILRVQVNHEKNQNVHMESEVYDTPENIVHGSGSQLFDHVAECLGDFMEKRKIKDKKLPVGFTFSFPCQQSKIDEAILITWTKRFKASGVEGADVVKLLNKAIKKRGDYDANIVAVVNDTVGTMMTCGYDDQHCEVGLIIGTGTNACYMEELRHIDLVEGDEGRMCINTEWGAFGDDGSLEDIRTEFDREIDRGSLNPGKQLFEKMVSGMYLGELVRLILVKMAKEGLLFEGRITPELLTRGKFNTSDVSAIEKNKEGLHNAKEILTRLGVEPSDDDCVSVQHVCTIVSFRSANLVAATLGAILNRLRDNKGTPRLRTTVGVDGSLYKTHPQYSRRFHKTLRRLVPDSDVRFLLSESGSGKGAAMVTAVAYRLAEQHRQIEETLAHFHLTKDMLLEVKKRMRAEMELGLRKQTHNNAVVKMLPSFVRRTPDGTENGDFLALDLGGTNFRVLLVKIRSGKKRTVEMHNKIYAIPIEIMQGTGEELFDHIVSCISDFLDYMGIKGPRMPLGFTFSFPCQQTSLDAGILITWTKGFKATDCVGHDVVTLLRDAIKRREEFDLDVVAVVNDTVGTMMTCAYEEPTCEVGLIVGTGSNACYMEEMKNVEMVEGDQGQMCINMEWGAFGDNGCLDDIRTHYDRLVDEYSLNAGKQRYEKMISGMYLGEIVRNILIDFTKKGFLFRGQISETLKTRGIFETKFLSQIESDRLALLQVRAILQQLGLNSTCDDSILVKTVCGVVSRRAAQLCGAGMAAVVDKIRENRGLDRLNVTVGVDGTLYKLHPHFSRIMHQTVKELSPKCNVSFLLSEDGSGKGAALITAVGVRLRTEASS", "assay": "SAR analysis of small molecule inhibitors of hexokinase domain containing I (HKDC1) in the hexokinase 1 selectivity assay. [Related pubchem assays (depositor defined):AID493160, AID493190]", "type": "functional"}, "[2]": {"molecular_target": "T2, Hexokinase HKDC1 (Homo sapiens, UniProt Q2TB90)", "T2 sequence (Q2TB90 whole entry)": "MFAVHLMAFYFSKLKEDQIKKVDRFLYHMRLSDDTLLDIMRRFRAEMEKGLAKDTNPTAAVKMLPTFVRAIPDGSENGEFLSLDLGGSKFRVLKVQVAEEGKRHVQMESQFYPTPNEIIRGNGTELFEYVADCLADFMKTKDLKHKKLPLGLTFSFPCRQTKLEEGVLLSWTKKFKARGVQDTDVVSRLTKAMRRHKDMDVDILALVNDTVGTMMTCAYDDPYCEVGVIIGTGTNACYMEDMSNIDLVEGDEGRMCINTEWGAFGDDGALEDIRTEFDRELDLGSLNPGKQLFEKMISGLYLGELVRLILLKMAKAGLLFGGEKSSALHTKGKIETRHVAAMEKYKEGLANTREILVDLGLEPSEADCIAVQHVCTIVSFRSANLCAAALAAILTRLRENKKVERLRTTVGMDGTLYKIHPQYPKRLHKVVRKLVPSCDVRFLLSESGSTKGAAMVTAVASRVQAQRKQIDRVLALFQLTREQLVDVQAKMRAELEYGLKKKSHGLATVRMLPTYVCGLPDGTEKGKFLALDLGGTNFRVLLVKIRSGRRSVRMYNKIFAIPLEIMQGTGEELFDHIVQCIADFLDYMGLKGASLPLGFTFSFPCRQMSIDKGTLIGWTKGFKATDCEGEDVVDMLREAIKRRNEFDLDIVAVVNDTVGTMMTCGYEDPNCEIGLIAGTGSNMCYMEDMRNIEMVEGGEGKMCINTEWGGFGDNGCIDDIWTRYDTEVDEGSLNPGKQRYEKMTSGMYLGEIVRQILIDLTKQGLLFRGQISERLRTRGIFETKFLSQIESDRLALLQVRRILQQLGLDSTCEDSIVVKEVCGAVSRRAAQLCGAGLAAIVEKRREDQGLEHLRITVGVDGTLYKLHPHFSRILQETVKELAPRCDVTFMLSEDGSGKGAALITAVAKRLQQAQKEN", "assay": "SAR analysis of small molecule inhibitors of hexokinase domain containing I (HKDC1). [Related pubchem assays (depositor defined):AID493160, AID493190]", "type": "functional"}, "[3]": {"molecular_target": "Phospholipase A2 (Homo sapiens, UniProt P04054)", "sequence (P04054 whole entry)": "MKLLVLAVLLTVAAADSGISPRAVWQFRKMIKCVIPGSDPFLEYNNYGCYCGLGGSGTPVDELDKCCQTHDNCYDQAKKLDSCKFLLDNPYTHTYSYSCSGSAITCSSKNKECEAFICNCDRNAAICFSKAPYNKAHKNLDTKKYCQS", "type": "functional"}, "[4]": {"molecular_target": "T3, Aminopeptidase N (Plasmodium falciparum FcB1/Columbia, UniProt O96935)", "T3 sequence (O96935 whole entry)": "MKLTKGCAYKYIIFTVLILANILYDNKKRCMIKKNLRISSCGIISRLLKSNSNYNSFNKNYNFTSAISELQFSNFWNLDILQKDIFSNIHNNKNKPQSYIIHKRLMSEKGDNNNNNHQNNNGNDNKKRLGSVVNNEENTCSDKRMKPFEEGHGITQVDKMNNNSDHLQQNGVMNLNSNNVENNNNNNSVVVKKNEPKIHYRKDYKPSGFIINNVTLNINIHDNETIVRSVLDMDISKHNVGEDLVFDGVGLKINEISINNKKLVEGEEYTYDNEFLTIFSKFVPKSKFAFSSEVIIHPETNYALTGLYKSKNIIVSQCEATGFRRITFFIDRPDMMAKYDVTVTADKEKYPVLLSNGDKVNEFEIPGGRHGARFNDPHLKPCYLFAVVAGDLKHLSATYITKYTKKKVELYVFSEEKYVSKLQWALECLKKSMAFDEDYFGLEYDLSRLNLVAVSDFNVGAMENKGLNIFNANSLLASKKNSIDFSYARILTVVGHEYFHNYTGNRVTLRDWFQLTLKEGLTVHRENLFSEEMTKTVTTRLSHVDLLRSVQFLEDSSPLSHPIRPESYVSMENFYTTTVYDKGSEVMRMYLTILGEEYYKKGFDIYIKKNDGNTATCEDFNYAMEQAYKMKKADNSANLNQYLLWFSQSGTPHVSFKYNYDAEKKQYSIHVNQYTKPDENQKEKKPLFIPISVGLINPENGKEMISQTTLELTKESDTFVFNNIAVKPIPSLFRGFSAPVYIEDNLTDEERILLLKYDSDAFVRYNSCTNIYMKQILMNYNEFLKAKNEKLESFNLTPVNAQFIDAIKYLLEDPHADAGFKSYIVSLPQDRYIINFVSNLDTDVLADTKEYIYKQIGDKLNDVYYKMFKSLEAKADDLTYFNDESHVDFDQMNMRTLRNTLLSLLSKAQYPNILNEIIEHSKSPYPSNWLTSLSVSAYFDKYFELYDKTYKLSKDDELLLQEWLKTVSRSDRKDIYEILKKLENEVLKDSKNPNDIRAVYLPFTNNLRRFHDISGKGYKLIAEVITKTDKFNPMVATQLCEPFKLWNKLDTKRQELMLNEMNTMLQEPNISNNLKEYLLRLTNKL", "assay": "P. falciparum M1AAP inhibitors, biochemical, fluorogenic H-Leu-NHMec substrate, 1536-well (AID 1445)", "set-up": "species or system Plasmodium falciparum 3D7, 3D7"}, "[5]": {"molecular_target": "Cysteine protease ATG4B (Homo sapiens, UniProt Q9Y4P1)", "sequence (Q9Y4P1 whole entry)": "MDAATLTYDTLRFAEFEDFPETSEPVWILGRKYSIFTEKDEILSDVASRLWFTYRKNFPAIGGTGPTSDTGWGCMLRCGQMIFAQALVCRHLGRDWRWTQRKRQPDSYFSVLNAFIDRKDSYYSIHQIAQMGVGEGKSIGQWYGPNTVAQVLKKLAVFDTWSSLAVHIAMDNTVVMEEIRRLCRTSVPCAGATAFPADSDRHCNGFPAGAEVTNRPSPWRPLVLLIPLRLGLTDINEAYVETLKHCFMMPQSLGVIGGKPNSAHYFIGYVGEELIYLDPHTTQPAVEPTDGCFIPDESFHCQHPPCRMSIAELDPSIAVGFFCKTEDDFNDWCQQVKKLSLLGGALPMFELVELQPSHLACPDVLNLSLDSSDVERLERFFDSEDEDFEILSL", "type": "functional"}, "[6]": {"molecular_target": "T4, Sentrin-specific protease 6 (Homo sapiens, UniProt Q9GZR1)", "T4 sequence (Q9GZR1 whole entry)": "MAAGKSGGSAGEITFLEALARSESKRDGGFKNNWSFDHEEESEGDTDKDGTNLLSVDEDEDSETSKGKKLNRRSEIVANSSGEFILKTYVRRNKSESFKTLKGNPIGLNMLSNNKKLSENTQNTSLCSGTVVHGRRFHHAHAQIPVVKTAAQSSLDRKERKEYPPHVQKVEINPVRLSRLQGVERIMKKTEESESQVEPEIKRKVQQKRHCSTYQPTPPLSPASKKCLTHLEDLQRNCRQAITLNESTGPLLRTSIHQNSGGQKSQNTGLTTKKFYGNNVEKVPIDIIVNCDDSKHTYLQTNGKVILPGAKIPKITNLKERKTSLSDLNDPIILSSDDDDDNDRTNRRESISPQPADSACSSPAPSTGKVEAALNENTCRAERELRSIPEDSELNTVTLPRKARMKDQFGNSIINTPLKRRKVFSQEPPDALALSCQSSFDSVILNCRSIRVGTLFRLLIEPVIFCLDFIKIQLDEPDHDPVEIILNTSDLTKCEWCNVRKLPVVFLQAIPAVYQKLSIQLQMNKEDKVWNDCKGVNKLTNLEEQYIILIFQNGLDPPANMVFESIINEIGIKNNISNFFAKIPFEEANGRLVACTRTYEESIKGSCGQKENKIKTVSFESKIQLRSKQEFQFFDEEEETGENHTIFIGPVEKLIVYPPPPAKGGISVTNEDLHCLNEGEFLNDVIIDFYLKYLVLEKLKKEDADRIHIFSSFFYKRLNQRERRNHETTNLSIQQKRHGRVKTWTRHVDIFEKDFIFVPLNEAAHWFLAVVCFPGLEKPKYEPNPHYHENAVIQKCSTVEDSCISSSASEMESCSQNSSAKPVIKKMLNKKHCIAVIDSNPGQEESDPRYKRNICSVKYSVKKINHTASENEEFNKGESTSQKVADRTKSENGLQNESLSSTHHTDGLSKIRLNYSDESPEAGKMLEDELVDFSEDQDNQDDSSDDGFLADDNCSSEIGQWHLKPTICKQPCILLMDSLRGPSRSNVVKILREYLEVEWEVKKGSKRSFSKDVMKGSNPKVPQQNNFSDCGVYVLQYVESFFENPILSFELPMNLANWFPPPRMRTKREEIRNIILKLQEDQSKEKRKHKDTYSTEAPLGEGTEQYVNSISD", "type": "functional"}, "[7]": {"molecular_target": "T5, Caspase-3 (Homo sapiens, UniProt P42574)", "T5 sequence (P42574 whole entry)": "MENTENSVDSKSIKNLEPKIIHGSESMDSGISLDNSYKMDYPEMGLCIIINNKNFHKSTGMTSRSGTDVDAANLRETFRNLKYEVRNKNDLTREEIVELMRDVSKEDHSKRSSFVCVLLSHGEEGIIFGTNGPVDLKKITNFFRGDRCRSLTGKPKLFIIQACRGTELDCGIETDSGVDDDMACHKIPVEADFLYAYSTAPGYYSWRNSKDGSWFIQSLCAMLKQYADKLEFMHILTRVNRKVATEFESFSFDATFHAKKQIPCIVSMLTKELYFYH", "type": "functional"}, "[8]": {"molecular_target": "T6, Sentrin-specific protease 8 (Homo sapiens, UniProt Q96LD8)", "T6 sequence (Q96LD8 whole entry)": "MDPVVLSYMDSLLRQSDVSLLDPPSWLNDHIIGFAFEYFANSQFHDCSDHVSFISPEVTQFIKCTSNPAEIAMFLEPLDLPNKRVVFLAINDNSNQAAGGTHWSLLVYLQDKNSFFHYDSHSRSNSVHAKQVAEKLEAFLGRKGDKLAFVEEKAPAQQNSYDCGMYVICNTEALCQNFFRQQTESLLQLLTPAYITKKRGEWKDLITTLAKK", "type": "functional"}, "[9]": {"molecular_target": "T7, Sentrin-specific protease 7 (Homo sapiens, UniProt Q9BQF6)", "T7 sequence (Q9BQF6 whole entry)": "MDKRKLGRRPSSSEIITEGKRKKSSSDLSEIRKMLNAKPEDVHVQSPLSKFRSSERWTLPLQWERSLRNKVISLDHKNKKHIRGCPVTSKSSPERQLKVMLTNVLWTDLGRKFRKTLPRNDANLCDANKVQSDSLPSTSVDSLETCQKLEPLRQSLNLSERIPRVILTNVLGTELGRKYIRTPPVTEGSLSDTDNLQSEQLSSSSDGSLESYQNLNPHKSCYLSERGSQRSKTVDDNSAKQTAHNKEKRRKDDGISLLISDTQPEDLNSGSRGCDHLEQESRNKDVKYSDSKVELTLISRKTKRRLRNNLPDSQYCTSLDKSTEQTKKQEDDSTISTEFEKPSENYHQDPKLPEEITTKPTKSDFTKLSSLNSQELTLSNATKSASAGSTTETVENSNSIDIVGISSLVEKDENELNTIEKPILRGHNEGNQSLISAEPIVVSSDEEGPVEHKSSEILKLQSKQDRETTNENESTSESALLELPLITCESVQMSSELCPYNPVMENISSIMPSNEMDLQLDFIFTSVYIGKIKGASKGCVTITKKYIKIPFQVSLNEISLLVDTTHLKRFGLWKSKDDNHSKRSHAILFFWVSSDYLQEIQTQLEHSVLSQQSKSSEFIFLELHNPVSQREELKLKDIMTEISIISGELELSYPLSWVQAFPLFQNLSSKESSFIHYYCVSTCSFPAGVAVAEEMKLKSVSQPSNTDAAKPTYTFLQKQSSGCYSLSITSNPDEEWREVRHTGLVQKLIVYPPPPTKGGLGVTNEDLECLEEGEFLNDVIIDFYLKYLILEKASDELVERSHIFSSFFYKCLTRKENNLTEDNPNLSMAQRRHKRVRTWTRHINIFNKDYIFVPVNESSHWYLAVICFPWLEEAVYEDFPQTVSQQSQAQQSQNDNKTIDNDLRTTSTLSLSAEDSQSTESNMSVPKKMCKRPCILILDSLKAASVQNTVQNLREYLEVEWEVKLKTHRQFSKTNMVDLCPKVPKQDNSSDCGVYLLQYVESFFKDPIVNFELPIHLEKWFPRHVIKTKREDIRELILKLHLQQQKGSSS", "type": "functional"}, "[10]": {"molecular_target": "FAD-linked sulfhydryl oxidase ALR (Homo sapiens, UniProt P55789)", "sequence (P55789 whole entry)": "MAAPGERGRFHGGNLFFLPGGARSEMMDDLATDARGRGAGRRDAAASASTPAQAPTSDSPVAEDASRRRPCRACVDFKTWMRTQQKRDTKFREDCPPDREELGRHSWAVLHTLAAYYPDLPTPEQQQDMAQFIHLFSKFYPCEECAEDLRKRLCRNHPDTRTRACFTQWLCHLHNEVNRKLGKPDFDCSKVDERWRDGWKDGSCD", "assay": "inhibitors of human ALR sulfhydryl oxidase, dose response, biochemical, H2O2 detection, luminescence, cherry-pick (AID 493248)"}}, "note": "Active and inactive are the calls of the source."}
{"compound": "Cc1ccc(C(=O)Nc2nnc(SCc3ccc(C#N)cc3)s2)cc1", "values": [{"measurement": "IC50", "setting": "[1]", "result": "> 80 µM (inactive)"}, {"measurement": "IC50", "setting": "[2]", "result": "> 80 µM (inactive)"}]}
{"compound": "COc1cc(/C=C/C(=O)O)cc(S(=O)(=O)Nc2cc(Cl)c(Cl)cc2Cl)c1OC", "values": [{"measurement": "IC50", "setting": "[3]", "result": "34.1 µM (inactive)"}, {"measurement": "IC50", "setting": "[4]", "result": "94.2 µM (active)"}, {"measurement": "IC50", "setting": "[5]", "result": "6.7 µM (active)"}]}
{"compound": "O=c1c2ccccc2nc(/C=C/c2ccc(Br)cc2)n1Cc1ccccc1", "values": [{"measurement": "IC50", "setting": "[1]", "result": "> 80 µM (inactive)"}, {"measurement": "IC50", "setting": "[2]", "result": "> 80 µM (inactive)"}]}
{"compound": "C/C(=N/O)c1ccc2ccc3ccccc3c2c1", "values": [{"measurement": "IC50", "setting": "[6]", "result": "16.7 µM (active)"}, {"measurement": "IC50", "setting": "[7]", "result": "38 µM (active)"}, {"measurement": "IC50", "setting": "[8]", "result": "21.6 µM (active)"}, {"measurement": "IC50", "setting": "[9]", "result": "9.17 µM (active)"}, {"measurement": "AC50", "setting": "[10]", "result": "5.54 µM (active)"}]}
